Results from PubChem BioAssay (NCI).
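All cell lines were grown in 96-well plates and treated with compound for 48 hours. GI50 marks 50% less growth. TGI is the concentration that stops growth completely.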

Test system: P388 leukemia
Assay: NCI tumour cell line growth inhibition, 48 h

CCc1ccc([O-])c(C=NCCCN(C)CCCN=Cc2cc(C)ccc2[O-])c1.[Co+3].[N-]=[N+]=[N-]
GI50: 145 µg/mL
TGI: > 150 µg/mL
